Test system: HT29-MTX cells
Assay: Fractional synthesis rate of mucoproteins in vitro (3H-threonine incorporation)
Type: cell-based, human
Settings: for mucoprotein FSR: day 7 to 21, mean±SEM, n=6
Protocol: The effect of threonine supplementation on the mucin synthesis rate was analyzed in vitro in HT29-MTX cells (human colonic carcinoma cells). HT29-MIX cells were grown in normal Dulbecco's modified minimum essential medium (DMEM) supplemented with 10% (v/v) heat-inactivated fetal bovine serum (Life Technologies) and containing 25 mM glucose, 1% non-essential amino acids (Life Technologies), 2 mM glutamine (AJINOMOTO CO), 85 mg/L penicillin-streptomycin, 50 mg/L gentamicin, and 1.5 mg/L Amphotericin B (Life Technologies). Cells were cultured at 37° C. in an atmosphere containing 10% CO2:90% air. The culture medium was changed daily. Experiments were carried out in T75 cm^2 culture flasks between passages 10 to 20. Studies were performed in the late post-confluent period (21 days after seeding), when all cells display a mucin-secreting phenotype. For the experiment, cells were grown in the normal DMEM until confluency (7 days after seeding). Then from day 7 to day 21 after seeding, several concentrations of threonine in the DMEM were tested, namely, 0.2 mM, 0.4 mM, 0.8 mM and 1.6 mM. At day 20, L-(3-^3H) threonine (30 microCi/Flask) was added to a fresh 10 mL culture medium. The incorporation of the radioactive tracer to newly synthesized mucoproteins was determined for the following 24 hour period. After 24 hours of metabolic labeling, the culture medium of cells was removed. […] An aliquot of each homogenate was removed for the measurement of the specific radioactivity of the intracellular free threonine considered as the precursor pool. […] Purified mucins were hydrolyzed with 6M HCl (24 h at 100° C.), and their amino acid composition was determined by HPLC. […] The fractional synthesis rate (FSR) of mucoproteins was calculated and expressed in percent/day (%/d): (FSR=(Specific radioactivity of mucoprotein bound threonine/Specific radioactivity of intracellular free threonine)*100). […] The mucoprotein FSR was determined for each of the varying concentrations of threonine (mM) in the culture medium of HT29-MTX cells as further shown in FIG. 1.

SMILES: C[C@@H](O)[C@H](N)C(=O)O [threonine]
- mucoprotein FSR (0.2 mM threonine in culture medium): 26.4±1.4%
- mucoprotein FSR (0.8 mM threonine in culture medium): 37.3±1.4%
- threonine concentration at which mucoprotein FSR reached a plateau (0.2 to 1.6 mM tested): about 0.8 mM
